The text below walks through data of US20150011542A1, “Methods of Treating Adverse Intestinal Effects of Non-Steroidal Anti-Inflammatory Drugs” (University of Connecticut, priority 2012, published 2015).

For data set [1] the following is noted: humans, cited from earlier work.
The conditions of data set [2]: mouse, in vivo, ip, 60 mg/kg.
Data set [3] has as its system DCF-induced small intestinal ulceration. As to the kind of experiment: Diclofenac-induced small intestinal ulceration in mice (NBT staining, morphometry, histopathology). The format is in vivo. The text has this: Male C57BL/6J mice were obtained from The Jackson Laboratory (Bar Harbor, Me.). The mice were acclimatized for three weeks before the experiments and were 10-12 weeks of age at the start of the experiments. The animals were kept on a 14:10-hour light:dark cycle. They received mouse chow (Teklad Global Rodent Diet, Harlan Laboratories, Boston, Mass.) and water ad libitum. All studies were approved by the Institutional Animal Care and Use Committee of the University of Connecticut. […] All animals were treated at five hours before the start of the dark cycle. […] Control animals received methyl cellulose and/or Solutol HS-15.
(§1) Enteropathy was assessed and graded as described previously (Ramirez-Alcantara et al., Am. J. Physiol. (Gastrointest. Liver Physiol.), 297:G990-G998 (2009)). Briefly, mice were sacrificed by CO2 inhalation at 18 hours post-DCF (when the development of mucosal injury was maximal). A midline incision was made and blood was obtained via cardiac puncture. Serum was prepared and frozen at −80° C. until use for analysis. The entire small intestine (from the gastroduodenal junction to the ileocecal junction) was removed and opened longitudinally along the anti-mesenteric side. The tissue was rinsed in cold PBS and incubated for 15 minutes in 1 mM nitroblue tetrazolium (NBT) solution containing 16 mM HEPES-NaOH, 125 mM NaCl buffer, 3.5 mM KCl, and 10 mM glucose. Next, the tissues were fixed in 10% zinc formalin for 24 hours, washed, and transferred to 70% ethanol. The intestine was metrically divided into four quartiles of equal length and evaluated at 10× magnification for quantitative and qualitative analysis of mucosal injury, and the lesions were assigned to the respective quartiles. The following scoring system was used: 0, no apparent lesions; 1, small erosions or ulcers (<0 1 mm); 2, medium ulcers (0.1-0.8 mm); 3, large confluent ulcers (>0.8 mm) In addition, the total area of the lesions was quantified by Image J software. The formalin-fixed tissue was embedded in paraffin, and 5-μm sections were stained with hematoxylin/eosin for histopathological evaluation. Serum activity of alkaline phosphatase (ALP) was measured with a kinetic colorimetric kit (BioAssay Systems, Hayward, Calif.).

Data set [4] can be described thus: in vivo. Particulars: male, C57BL/6, mouse, 60 mg/kg.
The nature of data set [5]: Pharmacokinetic profiling of diclofenac in mice with or without Inh-1 pretreatment. Particulars: male, C57BL/6, mouse, in vivo, ip, 60 mg/kg.
The conditions of data set [6]: cited from earlier work.
Data set [7] addresses T1, E. coli β-glucuronidase (Escherichia coli, UniProt P05804).
T1 construct: made in house
As to the kind of experiment: Inhibition of E. coli β-glucuronidase cleavage of diclofenac 1-β-O-acyl glucuronide (HPLC-UV of DCF product). The format is biochemical.

Data set [8] has as its system serum alkaline phosphatase (ALP) activity. Kind of data set: Serum alkaline phosphatase activity as biomarker of enteropathy. The format is in vivo, mice. The following applies: Inh-1 pretreatment; 18 h post-DCF. On the procedure:
as §1, with “(Ramirez-[…]” for “(Ramirez-Alcantara”, “297:[…]-[…]” for “297:G990-G998”, “-80°” for “−80°”, “Next, the tissues were fixed in 10% zinc formalin for 24 hours, washed, and transferred to 70% ethanol.” left out, “The following scoring system was used: 0, no apparent lesions; 1, small erosions or ulcers (<0 1 mm); 2, medium ulcers (0.1-0.8 mm); 3, large confluent ulcers (>0.8 mm) In addition, the total area of the lesions was quantified by Image J software.” left out

The structures appear in SMILES notation. Entries after “also recorded” stand apart in the source; their conditions may differ.

T1 sequence (P05804 whole entry): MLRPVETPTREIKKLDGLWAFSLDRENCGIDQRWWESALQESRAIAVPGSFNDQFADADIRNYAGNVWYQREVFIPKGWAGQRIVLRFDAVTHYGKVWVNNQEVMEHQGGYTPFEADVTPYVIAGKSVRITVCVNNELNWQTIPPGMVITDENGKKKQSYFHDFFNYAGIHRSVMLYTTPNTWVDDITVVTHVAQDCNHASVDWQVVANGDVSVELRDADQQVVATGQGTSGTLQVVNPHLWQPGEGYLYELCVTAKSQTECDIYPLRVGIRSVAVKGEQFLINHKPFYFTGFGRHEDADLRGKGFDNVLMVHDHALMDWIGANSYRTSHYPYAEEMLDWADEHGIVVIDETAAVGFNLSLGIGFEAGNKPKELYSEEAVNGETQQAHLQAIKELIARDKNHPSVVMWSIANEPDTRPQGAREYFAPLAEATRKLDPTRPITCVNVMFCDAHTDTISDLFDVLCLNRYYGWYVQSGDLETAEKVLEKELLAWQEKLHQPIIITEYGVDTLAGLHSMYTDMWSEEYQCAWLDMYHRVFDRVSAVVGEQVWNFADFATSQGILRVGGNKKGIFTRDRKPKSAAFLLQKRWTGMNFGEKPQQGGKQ

As a reminder, the Tmax is the time from dosing to the highest level. The term AUC(0-t) denotes exposure summed from dosing to a finite time, without extrapolation to infinity. Usually Cmax stands for the maximum level reached in the sampled fluid or tissue. A word on the half-life: it is the time in which the quantity being followed falls by half. For the compound `O=C(O)Cc1ccccc1Nc1c(Cl)cccc1Cl` [Diclofenac, diclofenac], in data set [1] (including AGs of 4′-hydroxy-DCF), the “total DCF clearance in the form of glucuronides” value was “approximately 75%”. Also, the “DCF excreted via bile” value in data set [1] (initial studies) is 10-20%. Moreover, in data set [2], the “apparent Cmax” value is given as “high micromolar range”. Besides, in data set [3] (DCF 60 mg/kg ip, single dose, 18 h), the “small intestinal ulceration caused by DCF alone” value was “developed typical nitroblue tetrazolium-(NBT-) positive areas of ulceration in the jejunum and ileum”. In data set [4], the Tmax stood at 9.6 min. Besides, in data set [4] (ip), the area under the curve AUC(0-t) came out at 208 µg·h/mL, the peak concentration (Cmax) came to 265 µg/mL and the Tmax is 10 min. In data set [5], the half-life is 169 min. Moreover, the “[14C]-DCF equivalents appearing in bile” value in data set [6] (during 60 minutes after intravenous 5 mg/kg in mice) is 42%.

As a reminder, the inhibition is the relative decrease from the control value, in per cent. Consider `CCOc1ccc(NC(=S)N(CCO)Cc2cc3cc(C)cc(C)c3[nH]c2=O)cc1` [Inh-1, ((6,8-dimethyl-2-oxo-1,2-dihydroquinolin-3-yl)methyl)-3-(4-ethoxyphenyl)-1-(2-hydroxyethyl)thiourea], for which, in data set [7] (increasing Inh-1 concentrations, DCF-AG 4 mM, FIG. 1B), the “inhibition of product (free DCF) formation” value is recorded as “concentration-dependent inhibition of product formation”. Moreover, the inhibition at 100 µM in data set [7] (read-out: inhibition of release of free DCF from DCF-AG) is greater than 90%. The “ulcer size and number, quartiles 3 and 4” value in data set [3] (Inh-1 10 μg/mouse po b.i.d. x2 days before DCF 60 mg/kg ip, 18 h post-DCF) is “greatly reduced both in size and number”. Moreover, the “histopathology: ulcers with loss of villi and inflammatory response” value in data set [3] (Inh-1 pretreatment plus DCF 60 mg/kg ip) was “largely prevented these changes”. Further, the “NBT-positive areas of ulceration, macroscopic” value in data set [3] (Inh-1 pretreatment plus DCF 60 mg/kg ip, jejunum, 18 h) was “absence of any large ulceration; also recorded: only few isolated and small NBT-positive areas”. The “protection from DCF-induced acute small intestinal injury” value in data set [3] (mice, overall conclusion) is recorded as “significant protection”. Moreover, in data set [8], the “DCF-associated decrease in serum alkaline phosphatase (ALP) activity” value is reported as “largely prevented”.

Consider `O=C(Cc1ccccc1Nc1c(Cl)cccc1Cl)O[C@@H]1O[C@H](C(=O)O)[C@@H](O)[C@H](O)[C@H]1O` [DCF-AG, diclofenac 1-β-O-acyl glucuronide], for which the “conversion of DCF-AG to its aglycone by purified enzyme (substrate)” value in data set [7] (various concentrations, data not shown) was “converted DCF-AG (various concentrations) to its aglycone”. Also, in data set [6] (gallbladder-cannulated mice), the “amount of biliary DCF-AG relative to parent DCF” value is listed as 117 fold and the “amount of biliary DCF-AG relative to ring-hydroxylated DCF” value is on record as 22 fold. In data set [6] (mice), the “amount of DCF-AG in bile” value is “approximately 4 % of the dose”.
